According to EP1157985A1 (G.D. SEARLE & CO., priority 1996, dated 1997):
Counter-ions that a name gives are not always drawn. Like-named read-outs stand apart in the source and are kept apart here.

How the values were obtained:
[1] = target: T1, Human fibrinogen receptor (αIIbβ3) (Homo sapiens, UniProt P05106+P08514); test: Purified IIb/IIIa receptor assay (solid phase receptor assay, competition with biotinylated vitronectin); assay type: binding; settings: purified receptor from outdated platelets; 1 nM biotinylated vitronectin; highest concentration tested 1.0 x 10^-4 M
T1 construct: Human fibrinogen receptor (αIIbβ3) was purified from outdated platelets; from tissue; host or cells: outdated (human) platelets
Source text: PURIFIED IIb/IIIa RECEPTOR ASSAY
Human fibrinogen receptor (αIIbβ3) was purified from outdated platelets. (Pytela, R., Pierschbacher, M.D., Argraves, S., Suzuki, S., and Rouslahti, E. "Arginine-Glycine-Aspartic acid adhesion receptors", Methods in Enzymology 144(1987):475-489.) Human vitronectin was purified from fresh frozen plasma as described in Yatohgo, T., Izumi, M., Kashiwagi, H., and Hayashi, M., "Novel purification of vitronectin from human plasma by heparin affinity chromatography," Cell Structure and Function 13(1988):281-292. Biotinylated human vitronectin was prepared by coupling NHS-biotin from Pierce Chemical Company (Rockford, IL) to purified vitronectin as previously described. (Charo, I.F., Nannizzi, L., Phillips, D.R., Hsu, M.A., Scarborough, R.M., "Inhibition of fibrinogen binding to GP IIb/IIIa by a GP IIIa peptide", J. Biol. Chem. 266(3)(1991): 1415-1421.) Assay buffer, OPD substrate tablets, and RIA grade BSA were obtained from Sigma (St. Louis, MO). Anti-biotin antibody was obtained from Calbiochem (La Jolla, CA). Linbro microtiter plates were obtained from Flow Labs (McLean, VA). ADP reagent was obtained from Sigma (St. Louis, MO).
This assay is essentially the same reported in Niiya, K., Hodson, E., Bader, R., Byers-Ward, V. Koziol, J.A., Plow, E.F. and Ruggeri, Z.M., "Increased surface expression of the membrane glycoprotein IIb/IIIa complex induced by platelet activation: Relationships to the binding of fibrinogen and platelet aggregation", Blood 70(1987):475-483. The purified human fibrinogen receptor (αIIbβ3) was diluted from stock solutions to 1.0 µg/mL in Tris-buffered saline containing 1.0 mM Ca^++, Mg^++, and Mn^++, pH 7.4 (TBS^+++). The diluted receptor was immediately transferred to Linbro microtiter plates at 100 µL/well (100 ng receptor/well). The plates were sealed and incubated overnight at 4°C to allow the receptor to bind to the wells. All remaining steps were at room temperature. The assay plates were emptied and 200 µL of 1% RIA grade BSA in TBS^+++ (TBS^+++/BSA) were added to block exposed plastic surfaces. Following a 2 hour incubation, the assay plates were washed with TBS^+++ using a 96 well plate washer. Logarithmic serial dilution of the test compound and controls were made starting at a stock concentration of 2 mM and using 2 nM biotinylated vitronectin in TBS^+++/BSA as the diluent. This premixing of labeled ligand with test (or control) ligand, and subsequent transfer of 50 µL aliquots to the assay plate was carried out with a CETUS Propette robot; the final concentration of the labeled ligand was 1 nM and the highest concentration of test compound was 1.0 x 10^-4 M. The competition occurred for two hours after which all wells were washed with a plate washer as before. Affinity purified horseradish peroxidase labeled goat anti-biotin antibody was diluted 1:3000 in TBS^+++/BSA and 125 µL were added to each well. After 30 minutes, the plates were washed and incubated with […] substrate in 100 mM/L citrate buffer, pH 5.0. The plate was read with a microtiter plate reader at a wavelength of 450 nm and when the maximum-binding control wells reached an absorbance of about 1.0, the final A450 were recorded for analysis. The data were analyzed using a macro written for use with the EXCEL™ spreadsheet program. The mean, standard deviation, and %CV were determined for duplicate concentrations. The mean A450 values were normalized to the mean of four maximum-binding controls (no competitor added)(B-MAX). The normalized values were subjected to a four parameter curve fit algorithm, [Robard et al., Int. […]

[2] = target: T2, Human vitronectin receptor (αvβ3) (Homo sapiens, UniProt P05106+P06756); test: Vitronectin adhesion assay (solid phase receptor assay, competition with biotinylated vitronectin); assay type: binding
T2 construct: Human vitronectin receptor (αvβ3) was purified from human placenta; from tissue; host or cells: human placenta
Procedure: VITRONECTIN ADHESION ASSAY
Human vitronectin receptor (αvβ3) was purified from human placenta as previously described [Pytela et al., Methods in Enzymology, 144:475-489 (1987)]. Human vitronectin was purified from fresh frozen plasma as previously described [Yatohgo et al., Cell Structure and Function, 13:281-292 (1988)]. Biotinylated human vitronectin was prepared by coupling NHS-biotin from Pierce Chemical Company (Rockford, IL) to purified vitronectin as previously described [Charo et al., J. Biol. Chem., 266(3):1415-1421 (1991)]. Assay buffer, OPD substrate tablets, and RIA grade BSA were obtained from Sigma (St. Louis, MO). Anti-biotin antibody was obtained from Calbiochem (La Jolla, CA). Linbro microtiter plates were obtained from Flow Labs (McLean, VA). ADP reagent was obtained from Sigma (St. Louis, MO).
This assay was essentially the same as previously reported [Niiya et al., Blood, 70:475-483 (1987)]. The purified human vitronectin receptor (αvβ3) was diluted from stock solutions to 1.0 µg/mL in Tris-buffered saline containing 1.0 mM Ca^++, Mg^++, and Mn^++, pH 7.4 (TBS^+++). The diluted receptor was immediately transferred to Linbro microtiter plates at 100 µL/well (100 ng receptor/well). The plates were sealed and incubated overnight at 4°C to allow the receptor to bind to the wells. All remaining steps were at room temperature. The assay plates were emptied and 200 µL of 1% RIA grade BSA in TBS^+++ (TBS^+++/BSA) were added to block exposed plastic surfaces. Following a 2 hour incubation, the assay plates were washed with TBS^+++ using a 96 well plate washer. Logarithmic serial dilution of the test compound and controls were made starting at a stock concentration of 2 mM and using 2 nM biotinylated vitronectin in TBS^+++/BSA as the diluent. This premixing of labeled ligand with test (or control) ligand, and subsequent transfer of 50 µL aliquots to the assay plate was carried out with a CETUS Propette robot; the final concentration of the labeled ligand was 1 nM and the highest concentration of test compound was 1.0 x 10^-4 M. The competition occurred for two hours after which all wells were washed with a plate washer as before. Affinity purified horseradish peroxidase labeled goat anti-biotin antibody was diluted 1:3000 in TBS^+++/BSA and 125 µL were added to each well. After 30 minutes, the plates were washed and incubated with OPD/H2O2 substrate in 100 mM/L Citrate buffer, pH 5.0. The plate was read with a microtiter plate reader at a wavelength of 450 nm and when the maximum-binding control wells reached an absorbance of about 1.0, the final A450 were recorded for analysis. The data were analyzed using a macro written for use with the EXCEL™ spreadsheet program. The mean, standard deviation, and %CV were determined for duplicate concentrations. The mean A450 values were normalized to the mean of four maximum-binding controls (no competitor added)(B-MAX). The normalized values were subjected to a four parameter curve fit algorithm [Rodbard et al., Int.

[3] = purified receptor from human placenta; 1 nM biotinylated vitronectin; highest concentration tested 1.0 x 10^-4 M; read-out: AvB3 IC50

`CCCCS(=O)(=O)NC(Cc1ccc(NC(=O)c2cccc(NC(=N)N)c2)cc1)C(=O)O` (stereo not shown) [Example 52, trifluoroacetate salt] showed an IC50 [1] of 1.88 nM and an IC50 [2, 3] of 0.33 nM.
For `CC(C)(C)OC(=O)NC(Cc1ccc(NC(=O)c2cccc(N=C(N)N)c2)cc1)C(=O)O` (stereo not shown) [Example 55, 4-[[[3-[(aminoiminomethyl)amino]phenyl]carbonyl]amino]-N-[(1,1-dimethylethoxy)carbonyl]-phenylalanine, monohydrate trifluoroacetate salt], the IC50 [1] was 14.3 nM and the IC50 [2, 3] was 0.51 nM.
In the case of `CC(C)(C)OC(=O)N[C@@H](Cc1ccc(NC(=O)c2cccc(NC(=N)N)c2)cc1)C(=O)O` [Example 56, trifluoroacetate salt], the IC50 [1] is reported as 6.35 nM and the IC50 [2, 3] is reported as 0.43 nM.
`CC(C)(C)OC(=O)N[C@H](Cc1ccc(NC(=O)c2cccc(NC(=N)N)c2)cc1)C(=O)O` [Example 57, 4-[[[3-[(aminoiminomethyl)amino]phenyl]carbonyl]amino]-N-[(1,1-dimethylethoxy)carbonyl]-D-phenylalanine, monohydrate trifluoroacetate salt] was tested, and the IC50 [1] was 318 nM and the IC50 [2, 3] was 14.5 nM.
Compound `CC(C)(C)OC(=O)CCc1ccc(CCNC(=O)c2cccc(NC(=N)N)c2)cc1` [Example 58, monohydrate trifluoroacetate salt] has an IC50 [1] of 57200 nM and an IC50 ([2]; read-out: AvB3 IC50; purified receptor from human placenta; 1 nM biotinylated vitronectin; highest concentration tested 1.0 x 10^-4 M) of 48400 nM.
In the case of `N=C(N)Nc1cccc(C(=O)NCCc2ccc(CCC(=O)O)cc2)c1` [Example 59, 4-[2-[[[3-[(aminoiminomethyl)amino]phenyl]carbonyl]amino]ethyl]benzenepropanoic acid, trifluoroacetate salt], the IC50 [1] is reported as 478 nM and the IC50 [2, 3] is reported as 4480 nM.
Compound `CCOC(=O)CCc1ccc(N(C)C(=O)c2cccc(NC(=N)N)c2)cc1` [Example 60, ethyl 4-[[[3-[(aminoiminomethyl)amino]phenyl]carbonyl]methylamino]benzenepropanoate, trifluoroacetate salt] has an IC50 [1] of 3810 nM and an IC50 [2, 3] of 3370 nM.
`CN(C(=O)c1cccc(NC(=N)N)c1)c1ccc(CCC(=O)O)cc1` [Example 61, 4-[[[3-[(aminoiminomethyl)amino]phenyl]carbonyl]methylamino]benzenepropanoic acid, monohydrate trifluoroacetate salt] showed an IC50 [1] of 666 nM and an IC50 [2, 3] of 470 nM.
`N=C(N)Nc1cccc(S(=O)(=O)Nc2ccc(CCC(=O)O)cc2)c1` [Example 62, 4-[[[3-[(aminoiminomethyl)amino]phenyl]sulfonyl]amino]benzenepropanoic acid, trifluoroacetate salt] was tested, and the IC50 [1] was 14800 nM and the IC50 [2, 3] was 28100 nM.
For `NC(N)=Nc1cccc(C(=O)Nc2ccc(CCC(=O)O)cc2)c1` [Example 64, 4-[[[3-[(aminoiminomethyl)amino]phenyl]carbonyl]amino]benzenepropanoic acid, hydrochloride], the IC50 [1] was 93.1 nM and the IC50 [2, 3] was 21.2 nM.
`N=C(N)Nc1cccc(C(=O)Nc2ccc(CC(N)C(=O)O)cc2)c1` (stereo not shown) [Example 65, 4-[[[3-[(aminoiminomethyl)amino]phenyl]carbonyl]amino]phenylalanine, trifluoroacetate salt] was tested, and the IC50 [1] was 21900 nM and the IC50 [2, 3] was 4760 nM.
`CC(=O)NC(Cc1ccc(NC(=O)Nc2cccc(NC(=N)N)c2)cc1)C(=O)O` (stereo not shown) [Example 68, N-acetyl-4-[[[[3-[(aminoiminomethyl)amino]phenyl]amino]carbonyl]amino]phenylalanine, trifluoroacetate salt] showed an IC50 [1] of 103 nM and an IC50 [2, 3] of 782 nM.
`CCOC(=O)C(CC(=O)O)c1ccc(NC(=O)c2cccc(NC(=N)N)c2)cc1` (stereo not shown) [Example 71, 1-ethyl hydrogen[4-[[[3-[(aminoiminomethyl)amino]phenyl]carbonyl]amino]-phenyl]butanedioate, trifluoroacetate salt] showed an IC50 [1] of 8.3 nM and an IC50 [2, 3] of 38.7 nM.
With `CC(C)OC(=O)NC(Cc1ccc(NC(=O)c2cccc(NC3=NC(=O)CN3)c2)cc1)C(=O)O` (stereo not shown) [Example 77, 4-[[[3-[(4,5-dihydro-4-oxo-lH-imidazol-2-yl)amino]phenyl]carbonyl]amino]-N-[(1-methylethoxy)-carbonyl]phenylalanine] the IC50 [1] was 1260 nM and the IC50 [2, 3] was 1.6 nM.
